{"source": "paper PMC12057336", "about": "(Antimicrobial Agents and Chemotherapy, 2025)", "key": {"primary rat hepatocytes": {"tested_on": "primary rat hepatocytes", "conditions": "for substrate stability in control incubation: absence of hepatocytes; for substrate stability in control incubation / remaining percentage: 1 µM; for remaining percentage: freshly isolated normal rat hepatocytes; for remaining percentage / decrease of formation compared to normal rat hepatocytes: 6 h; for decrease of formation compared to normal rat hepatocytes: linezolid 1 µM", "protocol": "Primary rat hepatocytes were isolated from normal, CCl4-induced, and 5/6 Nx rats according to the previously described two-step collagenase method ([36]). Rats were anesthetized with urethane (1 g/kg), their abdomens were opened, and their portal veins were cannulated with a needle. The liver was perfused with HBSS solution (without calcium and magnesium ions) containing 5 mM EGTA at a rate of 50–60 mL/min using a peristaltic pump until the blood in the liver was removed. HBSS solution containing 7.5 mg/50 mL collagenase was perfused for 20 min until the liver was completely softened and the surface collapsed. The liver was gently removed and placed in a precooled HBSS solution containing 10% FBS. Hepatocytes were eluted and centrifuged at 500 × g for 5 min, and the supernatant was removed to obtain primary rat hepatocytes. Isolated primary rat hepatocytes were washed three times and suspended in DMEM containing 10% FBS, 100 µg/mL streptomycin, 100 U/ml penicillin, and 10 µg/mL insulin at pH 7.65.\nFreshly isolated rat hepatocytes at a density of 1.0 × 10^6 cells/well were placed in plates pre-coated with collagen and incubated for 18–24 h in a humidified incubator at 37°C and 5% CO2. […] Control incubations were performed in the absence of hepatocytes to test the substrate stability. Three replicate samples (1 mL each) were collected after 1, 2, 4, and 6 h of incubation. Then, 800 µL of methanol was immediately added, and the samples were transferred to a freezer (−20°C) to terminate metabolism. Hepatocytes were quickly washed three times with ice-cold HBSS and then lysed by the addition of 300 µL of purified water.\nAn AB Sciex 4000 Mass Spectrometer (AB Sciex, Framingham, MA, USA) and Shimadzu LC 20 series (Shimadzu, Kyoto, Japan) were used for HPLC-MS/MS. […] The Phenomenex Synergi Hydro-RP column (30 mm × 2 mm, 4 µm, Phenomenex Inc., Torrance, CA, USA) was used for chromatographic separation. The mobile phase consisted of 0.1% (vol/vol) formic acid in water (A) and 0.1% (vol/vol) formic acid in acetonitrile (B). The gradient conditions were as follows: 0–1.4 min, 15%–80% B; 1.4–1.8 min, 80% B; 1.8–1.81 min, return to 15% B; 1.81–2.1 min, equilibrium. The flow rate was 450 µL/min. Data acquisition and analysis were performed using the Analyst software (version 1.4.1, AB Sciex).\n(§1) Atotal is the total cumulative amount excreted in urine over 24 h. D is the administered dose. The scale factor is 4,680 (10^6 cells/kg). All data are expressed as mean ± standard deviation (SD). Statistical analysis was performed using Student’s two-tailed unpaired t-test or nonparametric Mann-Whitney U test with SPSS Statistics 19.0 (SPSS Inc., Chicago, IL, USA). Statistical significance was set at P < 0.05."}, "in vivo": {"experiment": "in vivo", "conditions": "rat, in vivo; for half-life: t1/2", "text": "The control group rats were intraperitoneally injected with equal volumes of soybean oil. […] The upper and lower poles of the left kidney were removed under urethane anesthesia (1 g/kg; administered by i.p. injection). One week later, the right kidney was completely excised. Rats in the control group underwent a sham operation ([35]). Serum creatinine (CREA), blood urea nitrogen (BUN), aspartate aminotransferase (AST), alanine aminotransferase (ALT), alkaline phosphatase (ALP), lactate dehydrogenase (LDH), and total bilirubin (TBIL) levels were measured using commercial kits (Shanghai Enzyme-linked Biotechnology Co., Ltd., Shanghai, China) according to the protocols described by the manufacturer before pharmacokinetic experiments.\nThe rats were first divided into two groups: i.v. or i.g. administration groups. These two groups were further divided into the following four subgroups (n = 5): soybean oil-treated control rats, CCl4-induced rats, sham-operated control rats, and 5/6 Nx rats. […] Blood samples (200 µL) were collected from the retro-orbital venous plexus into heparinized tubes at 0 (pre-dose), 0.25, 0.5, 0.75, 1, 2, 3, 4, 6, 8, 12, and 24 h after i.g. administration, and at 0 (pre-dose), 0.083, 0.25, 0.5, 0.75, 1, 2, 3, 4, 6, 8, 12, and 24 h after i.v. administration. Plasma samples were separated by centrifugation at 6,000 × g for 5 min at 4°C and stored at −80°C until further analysis using HPLC.\nChromatographic separation was performed using the SinoPak BEH T-C18 column (4.6 mm × 150 mm, 5 µm, Hi-tech Zone, China) at 35°C. A photodiode array detector was set at a wavelength of 254 nm. The mobile phase consisted of 0.1% (vol/vol) formic acid in water (A) and acetonitrile (B). The gradient conditions were as follows: 0–4.0 min, 14%–86% B; 4.0–5.0 min, […]; 5.0–5.7 min, return to 14% B; 5.7–8.0 min, equilibrium. The flow rate was 1.0 mL/min.\nPlasma and tissue homogenate samples (100 µL) were mixed with 10 µL of IS (50.0 mg/L) and 200 µL of acetonitrile, followed by vortex-mixing for 3 min. The mixture was centrifuged at 15,000 × g for 15 min at 4°C. Then, 5 µL of the supernatant was analyzed. The urine samples were diluted and directly injected for measurement.\nThe area under the plasma concentration-time curve from 0 to infinity (AUC0-∞), time to maximum concentration (tmax), Cmax, t1/2, CL, and Vd were calculated by non-compartmental model analysis using the Phoenix 8.1.0 WinNonlin software (Pharsight Corp, Princeton, NJ, USA). The renal clearance (CLr), in vitro hepatic clearance (CLint, in vitro), and bioavailability (F) were calculated using the following equations:\nF (%) = Div×AUC0−∞, ig/Dig×AUC0−∞, iv\nas §1"}, "megakaryocytic cells": {"tested_on": "megakaryocytic cells", "conditions": "cited from earlier work"}, "[1]": {"experiment": "Tissue distribution after i.g. or i.v. linezolid in control, CCl4-induced and 5/6 Nx rats", "format": "in vivo, rat", "conditions": "after i.g. or i.v. linezolid; LLOQ 0.25 mg/L", "text": "These two groups were further divided into the following three subgroups (n = 4): control rats, CCl4-induced rats, and 5/6 Nx rats. […] The rats were euthanized immediately after blood sampling. The brain, heart, lungs, liver, kidneys, and small intestine were collected. The collected tissues were washed and homogenized in normal saline (three-fold volume of each sample weight) using a multi-sample tissue grinder (Tissuelyser-48L; Shanghai Jingxin Industrial Development Co. Ltd., Shanghai, China). After centrifugation of the homogenate samples at 12,000 × g for 10 min at 4°C, the supernatants were stored at −80°C.\nThe flow rate was 1.0 mL/min.\nThen, 5 µL of the supernatant was analyzed."}, "[2]": {"conditions": "cited from earlier work"}, "[3]": {"experiment": "Serum biochemical parameters of CCl4-induced rats", "format": "in vivo, rat"}}, "note": "Like-named read-outs stand apart in the source and are kept apart here."}
{"smiles": "C[C@]12CC[C@H]3[C@@H](CCC4=CC(=O)CC[C@@]43C)[C@@H]1CC[C@@H]2O", "note": "[testosterone]", "values": [{"measurement": "substrate stability in control incubation", "setting": "primary rat hepatocytes", "value": "No reductions"}, {"measurement": "remaining percentage", "setting": "primary rat hepatocytes", "value": "less than 2%"}]}
{"smiles": "O=c1ccc2ccc(O)cc2o1", "note": "[7-hydroxycoumarin]", "values": [{"measurement": "substrate stability in control incubation", "setting": "primary rat hepatocytes", "value": "No reductions"}, {"measurement": "remaining percentage", "setting": "primary rat hepatocytes", "value": "< 5", "unit": "%"}]}
{"smiles": "CC(=O)NC[C@H]1CN(c2ccc(N(CCO)CC(=O)O)c(F)c2)C(=O)O1", "note": "[PNU-142586]", "values": [{"measurement": "decrease of CLr in comparison to sham-operated control rats", "setting": "in vivo; Sprague-Dawley", "value": 33.3, "unit": "%"}, {"measurement": "share of the total plasma concentrations", "setting": "in vivo; Sprague-Dawley", "value": "5.6–8.5%"}, {"measurement": "AUC0-∞ relative to sham-operated control rats", "setting": "in vivo; Sprague-Dawley, iv", "value": 2.82, "unit": "fold"}, {"measurement": "decrease of AUC0-∞ compared to soybean oil-treated control rats", "setting": "in vivo; Sprague-Dawley, iv", "value": 13.6, "unit": "%"}, {"measurement": "decrease of CLr in comparison to sham-operated control rats", "setting": "in vivo; Sprague-Dawley, iv", "value": 33.3, "unit": "%"}, {"measurement": "t1/2 relative to control rats", "setting": "in vivo; Sprague-Dawley, iv", "value": 1.41, "unit": "fold"}, {"measurement": "t1/2 relative to sham-operated control rats", "setting": "in vivo; Sprague-Dawley, iv", "value": 1.53, "unit": "fold"}, {"measurement": "Cmax", "setting": "in vivo; Sprague-Dawley, iv, 25 mg/kg", "value": "1690 ± 230", "unit": "ng/mL"}, {"measurement": "half-life", "setting": "in vivo; Sprague-Dawley, iv, 25 mg/kg", "value": "2.11 ± 0.42", "unit": "h"}, {"measurement": "AUC0-∞ relative to sham-operated control rats", "setting": "in vivo; Sprague-Dawley, po", "value": 1.88, "unit": "fold"}, {"measurement": "decrease of AUC0-∞ compared to soybean oil-treated control rats", "setting": "in vivo; Sprague-Dawley, po", "value": 10.4, "unit": "%"}, {"measurement": "t1/2 relative to control rats", "setting": "in vivo; Sprague-Dawley, po", "value": 1.32, "unit": "fold"}, {"measurement": "t1/2 relative to sham-operated control rats", "setting": "in vivo; Sprague-Dawley, po", "value": 1.15, "unit": "fold"}, {"measurement": "Cmax", "setting": "in vivo; Sprague-Dawley, po, 63 mg/kg", "value": "1860 ± 210", "unit": "ng/mL"}, {"measurement": "half-life", "setting": "in vivo; Sprague-Dawley, po, 63 mg/kg", "value": "4.31 ± 0.52", "unit": "h"}, {"measurement": "Tmax", "setting": "in vivo; Sprague-Dawley, po, 63 mg/kg, tmax", "value": "2.8 ± 0.45", "unit": "h"}, {"measurement": "cumulative urinary excretion rate", "setting": "in vivo", "value": 3.5, "unit": "%"}, {"measurement": "cytotoxic effects on platelet precursor cell lines", "setting": "megakaryocytic cells", "value": "cytotoxic effects"}, {"measurement": "detection in brain, heart, lung, liver, kidney, or small intestine tissues", "setting": "[1]", "value": "No PNU-142586 was detected"}, {"measurement": "decrease of formation compared to normal rat hepatocytes", "setting": "primary rat hepatocytes; 5/6 Nx rat hepatocytes", "value": 28.9, "unit": "%"}, {"measurement": "decrease of formation compared to normal rat hepatocytes", "setting": "primary rat hepatocytes; hepatocytes from CCl4-induced rats", "value": 95.6, "unit": "%"}, {"measurement": "accumulation in patients with renal failure", "setting": "[2]", "value": "accumulated"}, {"measurement": "share of dosed linezolid in the urine", "setting": "[2]; humans", "value": "more than 30%"}]}
{"smiles": "ClC(Cl)(Cl)Cl", "note": "[CCl4, Carbon tetrachloride]", "values": [{"measurement": "serum ALT relative to soybean oil-treated control rats", "setting": "[3]", "value": 6.92, "unit": "fold"}, {"measurement": "serum AST relative to soybean oil-treated control rats", "setting": "[3]", "value": 10.7, "unit": "fold"}, {"measurement": "serum LDH relative to soybean oil-treated control rats", "setting": "[3]", "value": 1.86, "unit": "fold"}, {"measurement": "serum TBIL relative to soybean oil-treated control rats", "setting": "[3]", "value": 8.40, "unit": "fold"}, {"measurement": "ALP", "setting": "[3]; 2.5 mL/kg i.p., 24 h, serum", "value": "257.1 ± 94.3", "unit": "U/L"}, {"measurement": "ALT", "setting": "[3]; 2.5 mL/kg i.p., 24 h, serum", "value": "418.8 ± 129.4", "unit": "U/L"}, {"measurement": "AST", "setting": "[3]; 2.5 mL/kg i.p., 24 h, serum", "value": "2399.5 ± 203.2", "unit": "U/L"}, {"measurement": "CREA", "setting": "[3]; 2.5 mL/kg i.p., 24 h, serum", "value": "17.1 ± 7.3", "unit": "µmol/L"}, {"measurement": "LDH", "setting": "[3]; 2.5 mL/kg i.p., 24 h, serum", "value": "2477.6 ± 220.8", "unit": "U/L"}, {"measurement": "TBTL", "setting": "[3]; 2.5 mL/kg i.p., 24 h, serum", "value": "4.2 ± 2.0", "unit": "µmol/L"}]}
